In publication PMC9457575 (Molecules, 2022):
“Also recorded” adds a separate entry of the source. Like-named read-outs stand apart in the source and are kept apart here.

Assays:
[1] = Pharmacokinetic evaluation of brain exposure in mice; set-up: species or system C57BL/6 mice; settings: female, C57BL/6, mouse, in vivo, C57BL6 mice, 3 mg/kg IP; for Cmax: brain, 0.5-4 h, read-out: brain maximum (Cmax) concentration; for Kp: read-out: brain:plasma Cmax ratio
Method: Female C57BL/6 mice were bred in house and used at ~10 weeks of age for pharmacokinetic (PK) testing. Three animals were tested per time point. Doses were formulated in 2% NMP in canola oil, and all compounds were delivered at 3 mg/kg by intraperitoneal injection (IP). Tissues were taken at 0.5, 1, 2, and 4 h post dose. Animals were subjected to whole body perfusion using saline prior to tissue collection. Brain samples were homogenized with 50:50 ethanol:water (1:5, v/v). Forty µL of the homogenate, 10 µL of acetonitrile, and 150 µL of 100 ng/mL reserpine in acetonitrile containing 0.1% formic acid were vortexed and centrifuged. Plasma samples were diluted with 10 µL of acetonitrile, 150 µL of 100 ng/mL reserpine in acetonitrile containing 0.1% formic acid, vortexed and centrifuged. Samples were subjected to LC/MS/MS analysis. Standards were prepared in blank samples and used for calibration curves. Chromatography was performed using a Phenomenex Luna C18 column.

[2] = biological target: T1, human CB1 receptor (hCB1) (Homo sapiens, UniProt P21554); experiment: cAMP accumulation assay (Lance TR-FRET) in CHO-hCB1 cells; assay type: cell-based; settings: for hCB1 cAMP Efficacy: % of the maximum CP55940 (full agonist) signal; for hCB1 cAMP Efficacy / EC50 / Emax / hCB1 cAMP EC50: mean ± SEM; for EC50 / hCB1 cAMP EC50: forskolin-stimulated; for Emax: read-out: hCB1 cAMP Efficacy, % of the maximum CP55940 (full agonist) signal
T1 construct: host or cells: Chinese Hamster Ovary (CHO) cells
Method: The cAMP assays were performed in Chinese Hamster Ovary (CHO) cells (Perkin Elmer, Cat # ES-110-C) stably expressing the human CB1 receptor (hCB1) cultured under standard cell culture conditions (37 °C, 5% carbon dioxide, DMEM media with 1% Penicillin/Streptomycin and 400 µg/mL G418) using the Lance™ assay kit and manufacturer’s instructions were closely followed (Perkin Elmer). In brief, stimulation buffer containing 1X Hank’s Balanced Salt Solution (HBSS), 5 mM HEPES, 0.1% BSA stabilizer, and 0.5 mM final IBMX was prepared and titrated to pH 7.4 at rt. Serial dilutions of the test compounds and 300 nM forskolin, both prepared at 4× the desired final concentration in stimulation buffer, were added to a 96-well white ½ area microplate (PerkinElmer). The CHO-hCB1 cells were lifted with a non-enzymatic solution (Cell-stripper, Mediatech Inc., Orlando, FL, USA), and 4000 cells were added to each well. After incubating for 30 min at room temperature, Eu-cAMP tracer and uLIGHT-anti-cAMP working solutions were added per the manufacturer’s instructions. After incubation for 1 h, the TR-FRET signal (ex 337 nm, em 620 and […]) was read on a CLARIO star multimode plate reader (BMG Biotech, Cary, NC, USA). Data were analyzed using Prism software (GraphPad, La Jolla, CA, USA). Nonlinear regression analysis was performed to fit data and obtain maximum response (Emax), EC50, correlation coefficient (r^2), and other parameters. All experiments were performed in duplicate 2–3 times to ensure reproducibility and data are reported as mean ± standard error of mean unless noted otherwise.

hCB1 = hCB1 (Homo sapiens, UniProt P21554); experiment: Radioligand displacement of [3H]CP55940; settings: average of 3 measurements, read-out: Binding affinity (Ki)
Method: Further characterization of 21 was performed using radioligand displacement of [^3H]CP55940 and equilibrium dissociation constant (Ki) value was determined as described previously. Data reported are average values from 3 measurements with <30% standard error.

[3] = hCB1 cAMP EC50, CHO cells stably expressing hCB1
[4] = CHO cells stably expressing hCB1, read-out: hCB1 cAMP EC50
[5] = CHO cells stably expressing hCB1

T1 sequence (P21554 whole entry): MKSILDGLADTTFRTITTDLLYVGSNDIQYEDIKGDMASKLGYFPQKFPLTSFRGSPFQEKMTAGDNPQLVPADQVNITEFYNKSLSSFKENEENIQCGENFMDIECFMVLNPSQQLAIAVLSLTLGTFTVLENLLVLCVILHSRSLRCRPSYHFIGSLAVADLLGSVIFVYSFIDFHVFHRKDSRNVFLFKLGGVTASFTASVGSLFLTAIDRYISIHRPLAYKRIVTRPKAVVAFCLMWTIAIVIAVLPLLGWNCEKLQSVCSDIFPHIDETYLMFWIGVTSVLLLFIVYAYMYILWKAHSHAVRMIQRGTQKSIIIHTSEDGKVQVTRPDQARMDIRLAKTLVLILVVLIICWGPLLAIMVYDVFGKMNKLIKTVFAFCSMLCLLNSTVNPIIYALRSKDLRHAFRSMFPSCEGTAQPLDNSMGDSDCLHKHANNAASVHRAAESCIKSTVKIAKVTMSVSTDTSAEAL
hCB1, sequence (P21554 whole entry): as above

N#Cc1c(Oc2cccc(OS(=O)(=O)CCCC(F)(F)F)c2)cccc1C(F)(F)F [Compound 1, 3-[2-Cyano-3-(trifluoromethyl)phenoxy]phenyl-4,4,4-trifluoro-1-butanesulfonate, reference compound]
Cmax [1]: ~341 ng/mL | Kp [1]: 0.4 | hCB1 cAMP Efficacy [2]: 39 ± 11% | EC50 [2, 3]: 46 ± 5 nM

N#Cc1c(Oc2cccc(NS(=O)(=O)CCCC(F)(F)F)c2)cccc1C(F)(F)F [Compound 4, N-{3-[2-Cyano-3-(trifluoromethyl)phenoxy]phenyl}-4,4,4-trifluorobutane-1-sulfonamide]
melting point: 96 to 97 °C | EC50 [2, 4]: 190 ± 46 nM | Emax [2]: 96%

O=S(=O)(CCCC(F)(F)F)Nc1cccc(Oc2cccc(C(F)(F)F)c2Cl)c1 [Compound 5, N-{3-[2-Chloro-3-(trifluoromethyl)phenoxy]phenyl}-4,4,4-trifluorobutane-1-sulfonamide]
EC50 [2, 4]: 175 ± 42 nM | Emax [2]: 95%

N#Cc1ccccc1Oc1cccc(NS(=O)(=O)CCCC(F)(F)F)c1 [Compound 6, N-[3-(2-Cyanophenoxy)phenyl]-4,4,4-trifluorobutane-1-sulfonamide]
EC50 [2, 4]: 106 ± 8 nM | Emax [2]: 95%

CCCCCS(=O)(=O)Nc1cccc(Oc2cccc(C(F)(F)F)c2C#N)c1 [Compound 7, N-{3-[2-Cyano-3-(trifluoromethyl)phenoxy]phenyl}pentane-1-sulfonamide]
EC50 [2, 4]: 248 ± 108 nM | Emax [2]: 76%

N#Cc1c(Oc2cccc(NS(=O)(=O)Cc3ccccc3)c2)cccc1C(F)(F)F [Compound 8, N-{3-[2-Cyano-3-(trifluoromethyl)phenoxy]phenyl}-1-phenylmethanesulfonamide]
melting point: 131 to 132 °C | EC50 [2, 4]: 228 ± 134 nM | Emax [2]: 102%

O=S(=O)(Cc1ccccc1)Nc1cccc(Oc2cccc(C(F)(F)F)c2Cl)c1 [Compound 9, N-{3-[2-Chloro-3-(trifluoromethyl)phenoxy]phenyl}-1-phenylmethanesulfonamide]
melting point: 129 to 130 °C | EC50 [2, 4]: 255 ± 62 nM | Emax [2]: 78%

N#Cc1ccccc1Oc1cccc(NS(=O)(=O)Cc2ccccc2)c1 [Compound 10, N-[3-(2-Cyanophenoxy)phenyl]-1-phenylmethanesulfonamide]
EC50 [2, 4]: 164 ± 32 nM | Emax [2]: 82%

N#Cc1c(Oc2cccc(NS(=O)(=O)Cc3ccccc3Cl)c2)cccc1C(F)(F)F [Compound 11, 1-(2-Chlorophenyl)-N-{3-[2-cyano-3-(trifluoromethyl)phenoxy]phenyl}methanesulfonamide]
melting point: 121 to 122 °C | hCB1 cAMP EC50 [2, 5]: loss of activity; also recorded: Inactive

N#Cc1c(Oc2cccc(NS(=O)(=O)Cc3cccc(Cl)c3)c2)cccc1C(F)(F)F [Compound 12, 1-(3-Chlorophenyl)-N-{3-[2-cyano-3-(trifluoromethyl)phenoxy]phenyl}methanesulfonamide]
melting point: 144 to 145 °C | hCB1 cAMP EC50 [2, 5]: loss of activity; also recorded: Inactive

N#Cc1c(Oc2cccc(NS(=O)(=O)Cc3ccc(Cl)cc3)c2)cccc1C(F)(F)F [Compound 13, 1-(4-Chlorophenyl)-N-{3-[2-cyano-3-(trifluoromethyl)phenoxy]phenyl}methanesulfonamide]
melting point: 115 to 116 °C | hCB1 cAMP potency compared to the unsubstituted benzylsulfonamide 8 ([2]; fold more potent than 8): about 10 × | EC50 [2, 3]: 25 ± 4 nM | Emax [2]: 95%

N#Cc1c(Oc2cccc(NS(=O)(=O)c3cccc(OC(F)(F)F)c3)c2)cccc1C(F)(F)F [Compound 14, N-{3-[2-Cyano-3-(trifluoromethyl)phenoxy]phenyl}-3-(trifluoromethoxy)benzene-1-sulfonamide]
melting point: 120 to 121 °C | hCB1 cAMP EC50 [2, 5]: Inactive

N#Cc1c(Oc2cccc(NS(=O)(=O)c3ccc(OC(F)(F)F)cc3)c2)cccc1C(F)(F)F [Compound 15, N-{3-[2-Cyano-3-(trifluoromethyl)phenoxy]phenyl}-4-(trifluoromethoxy)benzene-1-sulfonamide]
melting point: 164 to 165 °C | hCB1 cAMP EC50 [2, 5]: Inactive

CCCCCC(=O)Nc1cccc(Oc2cccc(C(F)(F)F)c2C#N)c1 [Compound 16, N-{3-[2-Cyano-3-(trifluoromethyl)phenoxy]phenyl}hexanamide]
melting point: 95 to 96 °C | hCB1 cAMP EC50 [2, 5]: Inactive

CCCCOC(=O)Nc1cccc(Oc2cccc(C(F)(F)F)c2C#N)c1 [Compound 17, Butyl N-{3-[2-Cyano-3-(trifluoromethyl)phenoxy]phenyl}carbamate]
hCB1 cAMP EC50 [2, 5]: Inactive

CCCCNC(=O)Nc1cccc(Oc2cccc(C(F)(F)F)c2C#N)c1 [Compound 18, 3-Butyl-1-{3-[2-cyano-3-(trifluoromethyl)phenoxy]phenyl}urea]
hCB1 cAMP EC50 [2, 5]: Inactive

CCCCN(C)C(=O)Nc1cccc(Oc2cccc(C(F)(F)F)c2C#N)c1 [Compound 19, 3-Butyl-1-{3-[2-cyano-3-(trifluoromethyl)phenoxy]phenyl}-3-methylurea]
hCB1 cAMP EC50 [2, 5]: Inactive

N#Cc1c(Oc2cccc(NC(=O)Cc3ccccc3)c2)cccc1C(F)(F)F [Compound 20, N-{3-[2-Cyano-3-(trifluoromethyl)phenoxy]phenyl}-2-phenylacetamide]
melting point: 136 to 137 °C | EC50 [2, 4]: 474 ± 174 nM | Emax [2]: < 20%

N#Cc1c(Oc2cccc(NS(=O)(=O)NC3CCCCC3)c2)cccc1C(F)(F)F [Compound 21, N-Cyclohexyl({3-[2-cyano-3-(trifluoromethyl)phenoxy]phenyl}mamino)sulfonamide]
Cmax [1]: ~75 ng/mL | Kp [1]: 0.17 | melting point: 199 to 200 °C | hCB1 cAMP Efficacy [2]: 27 ± 18% | EC50 [2, 3]: 139 ± 24 nM | Emax [2]: 27% | Ki (hCB1): ~1500 nM

CCCCCS(=O)(=O)Nc1ccc(Oc2cccc(C(F)(F)F)c2C#N)cc1 [Compound 22, N-{4-[2-Cyano-3-(trifluoromethyl)phenoxy]phenyl}pentane-1-sulfonamide]
melting point: 94 to 95 °C | hCB1 cAMP EC50 [2, 5]: Inactive

N#Cc1c(Oc2ccc(NS(=O)(=O)Cc3ccccc3)cc2)cccc1C(F)(F)F [Compound 23, N-{4-[2-Cyano-3-(trifluoromethyl)phenoxy]phenyl}-1-phenylmethanesulfonamide]
melting point: 166 to 167 °C | hCB1 cAMP EC50 [2, 5]: Inactive

N#Cc1c(Oc2ccc(NC(=O)Cc3ccccc3)cc2)cccc1C(F)(F)F [Compound 24, N-{4-[2-Cyano-3-(trifluoromethyl)phenoxy]phenyl}-2-phenylacetamide]
Cmax [1]: ~730 ng/mL | Kp [1]: 0.79 | melting point: 200 to 201 °C | hCB1 cAMP Efficacy [2]: 36 ± 14% | EC50 [2, 4]: 366 ± 136 nM | Emax [2]: 36%
